Measurements as given in ChEMBL document CHEMBL1201862, “PubChem BioAssay data set” (2004).
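1) Cells in 96-well plates. 2) Compound, 48 h, 5 concentrations. 3) Linear interpolation between surrounding doses. 4) Unreached endpoint = highest concentration. At the GI50, growth is halved.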 Active and inactive are the calls of the source. No stated cut-off is given here; in the data, active = GI50 up to about 1.1 µM and inactive = higher.

Experiments:
Experiment in all cases: NCI-60 cell line screen, 48 h
SF-268 = system: SF-268
OVCAR-8 = system: OVCAR-8
SK-MEL-28 = system: SK-MEL-28
MCF7 = system: MCF7
LOX IMVI = system: LOX IMVI
NCI-H226 = system: NCI-H226
SK-MEL-5 = system: SK-MEL-5
Malme-3M = system: Malme-3M
UACC-257 = system: UACC-257
ACHN = system: ACHN
M14 = system: M14
HL-60 = system: HL-60
HCC 2998 = system: HCC 2998
MDA-MB-231 = system: MDA-MB-231
SK-OV-3 = system: SK-OV-3
HCT-15 = system: HCT-15
OVCAR-3 = system: OVCAR-3
OVCAR-5 = system: OVCAR-5
MOLT-4 = system: MOLT-4
A498 = system: A498

SMILES | GI50 (SF-268) | GI50 (OVCAR-8) | GI50 (SK-MEL-28) | GI50 (MCF7) | GI50 (LOX IMVI) | GI50 (NCI-H226) | GI50 (SK-MEL-5) | GI50 (Malme-3M) | GI50 (UACC-257) | GI50 (ACHN) | GI50 (M14) | GI50 (HL-60) | GI50 (HCC 2998) | GI50 (MDA-MB-231) | GI50 (SK-OV-3) | GI50 (HCT-15) [µM] | GI50 (OVCAR-3) | GI50 (OVCAR-5) | GI50 (MOLT-4) | GI50 (A498)
NC(=S)SC1=NC(=O)C2(NN1)c1ccccc1-c1ccccc12 | > 10 µM (inactive) | > 10 µM (inactive) | > 10 µM (inactive) | > 10 µM (inactive) | > 10 µM (inactive) | > 10 µM (inactive) | 6.12 µM (inactive) | > 10 µM (inactive) | > 10 µM (inactive) | 5.36 µM (inactive) | > 10 µM (inactive) | > 10 µM (inactive) | > 10 µM (inactive) | > 10 µM (inactive) | > 10 µM (inactive) | > 10 |  |  |  | 
Cc1cc2ccccc2n1CC(=O)NCC(C)C | > 100 µM (inactive) | > 100 µM (inactive) | > 100 µM (inactive) | > 100 µM (inactive) | > 100 µM (inactive) | > 100 µM (inactive) | > 100 µM (inactive) | > 100 µM (inactive) | > 100 µM (inactive) | > 100 µM (inactive) | > 100 µM (inactive) | > 100 µM (inactive) | > 100 µM (inactive) | > 100 µM (inactive) | > 100 µM (inactive) | > 100 | > 100 µM (inactive) | > 100 µM (inactive) | > 100 µM (inactive) | 
Cc1ccc(-c2nc3cc(Cl)ccc3[nH]2)cc1 | > 100 µM (inactive) | > 100 µM (inactive) | > 100 µM (inactive) | > 100 µM (inactive) | > 100 µM (inactive) | > 100 µM (inactive) | > 100 µM (inactive) | > 100 µM (inactive) | > 100 µM (inactive) | 97.5 µM (inactive) | > 100 µM (inactive) | 27 µM (inactive) | 53.2 µM (inactive) | > 100 µM (inactive) | > 100 µM (inactive) | 80.5 | > 100 µM (inactive) |  | 32.4 µM (inactive) | 
O=C(c1ccccc1)N1C(=S)N(c2ccc([N+](=O)[O-])cc2)C(=N/c2ccccc2)/C1=N\c1ccccc1 | > 100 µM (inactive) | 65.5 µM (inactive) | > 100 µM (inactive) | > 100 µM (inactive) |  | > 100 µM (inactive) | > 100 µM (inactive) | > 100 µM (inactive) | > 100 µM (inactive) | 52 µM (inactive) | > 100 µM (inactive) |  | > 100 µM (inactive) | 39.8 µM (inactive) | > 100 µM (inactive) | 65.2 | > 100 µM (inactive) | > 100 µM (inactive) | 19.5 µM (inactive) | 
Fc1cccc(C2SCc3nc4cc5ccccc5cc4n32)c1 (configuration not stated) | > 100 µM (inactive) | > 100 µM (inactive) | > 100 µM (inactive) | > 100 µM (inactive) | > 100 µM (inactive) | > 100 µM (inactive) |  | > 100 µM (inactive) | > 100 µM (inactive) | > 100 µM (inactive) | > 100 µM (inactive) |  | > 100 µM (inactive) | > 100 µM (inactive) | > 100 µM (inactive) | > 100 | > 100 µM (inactive) | > 100 µM (inactive) | > 100 µM (inactive) | 
O=C1Nc2ccccc2/C1=N/Nc1nc(-c2ccc(Cl)c(Cl)c2)cs1 |  | 47.4 µM (inactive) | > 100 µM (inactive) | 37.2 µM (inactive) | > 100 µM (inactive) | > 100 µM (inactive) | 20 µM (inactive) |  | > 100 µM (inactive) | 87.1 µM (inactive) | 78.5 µM (inactive) | 0.232 µM (active) | > 100 µM (inactive) | > 100 µM (inactive) | > 100 µM (inactive) | 6.24 | 4.75 µM (inactive) | > 100 µM (inactive) | 16 µM (inactive) | 
O=C1NNC2(C(=O)N1)c1ccccc1-c1ccccc12 | > 10 µM (inactive) | > 10 µM (inactive) | > 10 µM (inactive) | > 10 µM (inactive) | > 10 µM (inactive) | > 10 µM (inactive) | > 10 µM (inactive) | > 10 µM (inactive) | > 10 µM (inactive) | > 10 µM (inactive) | > 10 µM (inactive) | > 10 µM (inactive) | > 10 µM (inactive) | > 10 µM (inactive) | > 10 µM (inactive) | > 10 |  |  | > 10 µM (inactive) | 
Cc1c(C)c2ccc(O)cc2[nH]c1=O |  | > 100 µM (inactive) | > 100 µM (inactive) | > 100 µM (inactive) | > 100 µM (inactive) | > 100 µM (inactive) | > 100 µM (inactive) |  | > 100 µM (inactive) | > 100 µM (inactive) | > 100 µM (inactive) |  | > 100 µM (inactive) | > 100 µM (inactive) |  | > 100 | > 100 µM (inactive) | > 100 µM (inactive) | > 100 µM (inactive) | > 100 µM (inactive)
COc1cc(N(CCC#N)CCC#N)ccc1C(=N/NC(=O)c1cc(Br)ccc1O)/N=N/c1ccccc1 | 28.5 µM (inactive) | 28.4 µM (inactive) | 27.9 µM (inactive) | 18.9 µM (inactive) | 25.8 µM (inactive) | 33.2 µM (inactive) | 20.1 µM (inactive) | 31.7 µM (inactive) | 24.7 µM (inactive) | 28.2 µM (inactive) | 29 µM (inactive) | 13.9 µM (inactive) | 23.3 µM (inactive) | 21.2 µM (inactive) | 31.1 µM (inactive) | 24.7 | 22 µM (inactive) | 38.1 µM (inactive) | 15.9 µM (inactive) | 
COC(=O)c1csc(-c2nc(CCNC(=O)OC(C)(C)C)sc2Br)n1 | > 100 µM (inactive) | > 100 µM (inactive) | > 100 µM (inactive) | > 100 µM (inactive) |  | > 100 µM (inactive) | > 100 µM (inactive) | > 100 µM (inactive) | > 100 µM (inactive) | > 100 µM (inactive) | > 100 µM (inactive) | > 100 µM (inactive) | > 100 µM (inactive) |  | > 100 µM (inactive) | > 100 | > 100 µM (inactive) | > 100 µM (inactive) | > 100 µM (inactive) | > 100 µM (inactive)
c1cc2sc1CSCCSCCSC2 | > 100 µM (inactive) | > 100 µM (inactive) | > 100 µM (inactive) | > 100 µM (inactive) | > 100 µM (inactive) |  | > 100 µM (inactive) |  | > 100 µM (inactive) |  | > 100 µM (inactive) | > 100 µM (inactive) | > 100 µM (inactive) | > 100 µM (inactive) | > 100 µM (inactive) | > 100 | > 100 µM (inactive) | > 100 µM (inactive) | > 100 µM (inactive) | 
Cc1coc2c1[C@@H](O)[C@@]1(C)[C@H](CCC[C@@H]1C)C2 | 34.6 µM (inactive) | 22.4 µM (inactive) | 48.2 µM (inactive) | > 100 µM (inactive) | 43.4 µM (inactive) | 25.5 µM (inactive) | 49.9 µM (inactive) | 30 µM (inactive) | 33 µM (inactive) | 33.8 µM (inactive) | 18.2 µM (inactive) | 23.7 µM (inactive) | 42.4 µM (inactive) | 27.2 µM (inactive) | 48.4 µM (inactive) | 23.8 | 23.9 µM (inactive) | 67 µM (inactive) | 24.8 µM (inactive) | 
CCCCN(CCCC)C(=C(C(Cl)=C(Cl)Cl)[N+](=O)[O-])N(CCCC)CCCC | > 100 µM (inactive) |  | > 100 µM (inactive) |  |  | > 100 µM (inactive) | > 100 µM (inactive) | > 100 µM (inactive) | 32.1 µM (inactive) | > 100 µM (inactive) | > 100 µM (inactive) |  |  | 65.2 µM (inactive) | > 100 µM (inactive) | 98.6 | 37.2 µM (inactive) | 85.5 µM (inactive) |  | > 100 µM (inactive)
CC(=O)C1C(=O)C(=O)N(c2ccc([N+](=O)[O-])cc2Cl)C1=O (configuration not stated) | > 100 µM (inactive) | > 100 µM (inactive) | > 100 µM (inactive) | > 100 µM (inactive) | > 100 µM (inactive) | > 100 µM (inactive) | > 100 µM (inactive) |  | > 100 µM (inactive) | > 100 µM (inactive) | > 100 µM (inactive) | 93.1 µM (inactive) | > 100 µM (inactive) | > 100 µM (inactive) | > 100 µM (inactive) | > 100 | 94.2 µM (inactive) | > 100 µM (inactive) | 45.6 µM (inactive) | 
Cn1c(S)nnc1-c1csc(-c2ccc(Cl)cc2)n1 | 29.3 µM (inactive) | 21.8 µM (inactive) | 44.6 µM (inactive) | 37.2 µM (inactive) | 21.7 µM (inactive) | 23.1 µM (inactive) | > 100 µM (inactive) | 30.3 µM (inactive) | > 100 µM (inactive) | 18.7 µM (inactive) | 33.1 µM (inactive) |  | > 100 µM (inactive) | 24 µM (inactive) | 17.6 µM (inactive) | 53.8 | 19.1 µM (inactive) | 34.4 µM (inactive) | 55.8 µM (inactive) | 
CC1NOC(NS(=O)(=O)c2ccc(/N=N/c3c(O)c(C(=O)O)cc4ccccc34)cc2)C1C (configuration not stated) | > 100 µM (inactive) | > 100 µM (inactive) | > 100 µM (inactive) | > 100 µM (inactive) |  | > 100 µM (inactive) | > 100 µM (inactive) | > 100 µM (inactive) | > 100 µM (inactive) | > 100 µM (inactive) | > 100 µM (inactive) | > 100 µM (inactive) | > 100 µM (inactive) | > 100 µM (inactive) | > 100 µM (inactive) | > 100 | > 100 µM (inactive) | > 100 µM (inactive) | > 100 µM (inactive) | 
